According to patent US5932410A, “Assay for the detection of proteases” (Commonwealth Scientific and Industrial Research …, priority 1994, dated 1999):
Where a SMILES comes first, the peptide text is derived from it. The star is where a group is joined. Cbz = O=C(OCc1ccccc1)*

Key:
Assay type in all cases: biochemical
[1] = biological target: Proteinase K (Parengyodontium album, UniProt P06873); test: Esterase assay, proteinase K; settings: Z-AX-OMe substrate; for Esterase rate, Proteinase K: X = P1 residue, rates approximately ± 10%; for % of maximum activity, Proteinase K: percentage of the maximum activity
Chain of Proteinase K (P06873 106-384): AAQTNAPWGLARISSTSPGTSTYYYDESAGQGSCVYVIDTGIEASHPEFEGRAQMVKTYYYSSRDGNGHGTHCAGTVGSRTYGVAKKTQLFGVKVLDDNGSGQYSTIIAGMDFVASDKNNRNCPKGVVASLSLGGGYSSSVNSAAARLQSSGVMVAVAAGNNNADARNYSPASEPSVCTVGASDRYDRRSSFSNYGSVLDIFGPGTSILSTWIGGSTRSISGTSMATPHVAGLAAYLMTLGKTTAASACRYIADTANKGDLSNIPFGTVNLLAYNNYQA
Description: (§1) Advantage was taken of this activity to develop an "esterase" assay which uses a pH indicator to visualise the hydrogen ion release caused by the action of proteases on peptide-ester substrates. A series of twenty compounds of the form, carbobenzoxy alanyl-X-methyl ester (Z-AX-OMe) were synthesised where "X" is one of the naturally occurring amino acids. These substrates were used in a 96 well microtitre plate assay to screen each mutant enzyme for activity and specificity. The reactions were followed visually or quantified using a standard ELISA plate reader. The esterase assay, using trypsin as a test enzyme and Z-Ala-Arg-OMe as substrate, was more sensitive as than traditional trypsin substrates (three times the rate obtained with benzoyl arginine ethyl aster and twenty times the rate of benzoyl arginine p-nitroanilide) (Whittaker et al., Analytical Biochemistry, 220, 238-243, 1994).
(§2) The present inventors produced a panel of substrates carbobenzoxy alanyl-X-methyl eater (Z-AX-OMe) where X is one of the naturally occurring amino acids. The reactivity of these substrates with a number of serine proteases is set out in Table 1 and FIG. 1.
(§3) Rates are A580 change/min./mg protease. Rates are also shown as a […]

[2] = biological target: Chymotrypsin (Bos taurus, UniProt P00766); test: Esterase assay, chymotrypsin; settings: Z-AX-OMe substrate; for Esterase rate, Chymotrypsin: X = P1 residue, rates approximately ± 10%; for % of maximum activity, Chymotrypsin: percentage of the maximum activity
Description: as §1, §2, §3

[3] = tested on: Trypsin; test: Esterase assay, trypsin; settings: Z-AX-OMe substrate; for Esterase rate, Trypsin: X = P1 residue, rates approximately ± 10%; for % of maximum activity, Trypsin: percentage of the maximum activity
Description: as §1, §2, §3

[4] = biological target: α-Lytic protease (Lysobacter enzymogenes, UniProt P00778); test: Esterase assay, α-lytic protease; settings: Z-AX-OMe substrate; for Esterase rate, α-Lytic protease: X = P1 residue, rates approximately ± 10%; for % activity, α-Lytic protease: normalised to alanine
Chain of α-Lytic protease (P00778 25-397 limits assumed): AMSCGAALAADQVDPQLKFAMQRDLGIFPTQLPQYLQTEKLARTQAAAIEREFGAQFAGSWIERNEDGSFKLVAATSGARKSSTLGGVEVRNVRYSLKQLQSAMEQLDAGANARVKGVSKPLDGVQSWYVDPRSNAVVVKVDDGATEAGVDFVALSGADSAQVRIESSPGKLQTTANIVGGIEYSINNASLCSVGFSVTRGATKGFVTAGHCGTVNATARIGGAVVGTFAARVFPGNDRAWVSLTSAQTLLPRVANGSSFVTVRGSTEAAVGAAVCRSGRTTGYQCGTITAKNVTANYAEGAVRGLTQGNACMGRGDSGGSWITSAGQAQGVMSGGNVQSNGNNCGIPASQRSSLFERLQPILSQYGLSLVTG
Description: as §1, §2, §3

[5] = tested on: Subtilisin; test: Esterase assay, subtilisin; settings: Z-AX-OMe substrate; for Esterase rate, Subtilisin: X = P1 residue, rates approximately ± 10%; for % of maximum activity, Subtilisin: percentage of the maximum activity
Description: as §1, §2, §3

[6] = biological target: Elastase (Sus scrofa, UniProt P00772); test: Esterase assay, elastase; settings: Z-AX-OMe substrate; for Esterase rate, Elastase: X = P1 residue, rates approximately ± 10%; for % activity, Elastase: normalised to alanine
Chain of Elastase (P00772 27-266): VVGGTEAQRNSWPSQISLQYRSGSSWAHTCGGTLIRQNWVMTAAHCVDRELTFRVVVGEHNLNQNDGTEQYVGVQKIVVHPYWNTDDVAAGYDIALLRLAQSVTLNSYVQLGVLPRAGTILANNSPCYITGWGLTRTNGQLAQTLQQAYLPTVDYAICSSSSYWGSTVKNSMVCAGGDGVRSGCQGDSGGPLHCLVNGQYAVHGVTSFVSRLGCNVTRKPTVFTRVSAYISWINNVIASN
Description: as §1, §2, §3

[7] = biological target: Thrombin (Homo sapiens, UniProt P00734); test: Esterase assay, thrombin; settings: Z-AX-OMe substrate; for Esterase rate, Thrombin: X = P1 residue, rates approximately ± 10%; for % of maximum activity, Thrombin: percentage of the maximum activity
Description: as §1, §2, §3

Structure (SMILES)	Esterase rate, Proteinase K [1]	% of maximum activity, Proteinase K [1] [%]	Esterase rate, Chymotrypsin [2]	Esterase rate, Trypsin [3]	% of maximum activity, Trypsin [3] [%]	Esterase rate, α-Lytic protease [4]	% activity, α-Lytic protease [4] [%]	Esterase rate, Subtilisin [5]	% of maximum activity, Subtilisin [5] [%]	Esterase rate, Elastase [6]	% activity, Elastase [6] [%]	Esterase rate, Thrombin [7]	% of maximum activity, Thrombin [7] [%]	% of maximum activity, Chymotrypsin [2] [%]
COC(=O)[C@H](C)NC(=O)[C@H](C)NC(=O)OCc1ccccc1 [Ala] (Cbz-Ala-Ala-OMe)	775 A580 change/min./mg protease	100	trace	0 A580 change/min./mg protease	0	6.2 A580 change/min./mg protease	100	1536 A580 change/min./mg protease	73.8	15.7 A580 change/min./mg protease	100	0 A580 change/min./mg protease	0	–
COC(=O)[C@H](CC(N)=O)NC(=O)[C@H](C)NC(=O)OCc1ccccc1 [Asn] (Cbz-Ala-Asn-OMe)	137 A580 change/min./mg protease	17.7	0.3 A580 change/min./mg protease	0 A580 change/min./mg protease	0	0 A580 change/min./mg protease	0	244 A580 change/min./mg protease	11.4	0 A580 change/min./mg protease	0	0 A580 change/min./mg protease	0	0.5
COC(=O)[C@H](CC(=O)O)NC(=O)[C@H](C)NC(=O)OCc1ccccc1 [Asp] (Cbz-Ala-Asp-OMe)	18 A580 change/min./mg protease	2.3	0 A580 change/min./mg protease	0 A580 change/min./mg protease	0	0 A580 change/min./mg protease	0	trace	–	0 A580 change/min./mg protease	0	0 A580 change/min./mg protease	0	0
COC(=O)[C@H](CS)NC(=O)[C@H](C)NC(=O)OCc1ccccc1 [Cys] (Cbz-Ala-Cys-OMe)	392 A580 change/min./mg protease	50.6	0.4 A580 change/min./mg protease	0 A580 change/min./mg protease	0	8.5 A580 change/min./mg protease	137.1	1251 A580 change/min./mg protease	58.2	86.1 A580 change/min./mg protease	548.4	0 A580 change/min./mg protease	0	0.7
COC(=O)[C@H](CCC(N)=O)NC(=O)[C@H](C)NC(=O)OCc1ccccc1 [Gln] (Cbz-Ala-Gln-OMe)	553 A580 change/min./mg protease	71.4	0.5 A580 change/min./mg protease	0 A580 change/min./mg protease	0	0 A580 change/min./mg protease	0	1308 A580 change/min./mg protease	60.9	0 A580 change/min./mg protease	0	0 A580 change/min./mg protease	0	0.9
COC(=O)[C@H](CCC(=O)O)NC(=O)[C@H](C)NC(=O)OCc1ccccc1 [Glu] (Cbz-Ala-Glu-OMe)	97 A580 change/min./mg protease	12.5	0 A580 change/min./mg protease	0 A580 change/min./mg protease	0	0 A580 change/min./mg protease	0	83 A580 change/min./mg protease	3.9	0 A580 change/min./mg protease	0	0 A580 change/min./mg protease	0	0
COC(=O)CNC(=O)[C@H](C)NC(=O)OCc1ccccc1 [Gly] (Cbz-Ala-Gly-OMe)	58 A580 change/min./mg protease	7.5	0 A580 change/min./mg protease	0 A580 change/min./mg protease	0	0 A580 change/min./mg protease	0	22 A580 change/min./mg protease	1.0	0 A580 change/min./mg protease	0	0 A580 change/min./mg protease	0	0
COC(=O)[C@H](Cc1cnc[nH]1)NC(=O)[C@H](C)NC(=O)OCc1ccccc1 [His] (Cbz-Ala-His-OMe)	203 A580 change/min./mg protease	26.2	1.5 A580 change/min./mg protease	3.0 A580 change/min./mg protease	0.8	0 A580 change/min./mg protease	0	249 A580 change/min./mg protease	11.6	0 A580 change/min./mg protease	0	trace	–	2.7
CC[C@H](C)[C@H](NC(=O)[C@H](C)NC(=O)OCc1ccccc1)C(=O)OC [Ile] (Cbz-Ala-Ile-OMe)	5 A580 change/min./mg protease	0.6	0 A580 change/min./mg protease	0 A580 change/min./mg protease	0	0 A580 change/min./mg protease	0	16 A580 change/min./mg protease	0.7	1.7 A580 change/min./mg protease	11.0	0 A580 change/min./mg protease	0	0
